Reference: patent US20060005464A1, “Alkyl ethanolamine and biocide combination for hydrocarbon based fuels” (priority 2004, published 2006)

How the values were obtained:
[1] = tested on: mixed enteric bacteria (klebsiella pneumoniae, Proteus vulgarus, Citrobacter sp., Escherichia coli); experiment: Maximum growth slope of mixed enteric bacteria culture with GROTAN plus alkanolamine; assay type: cell-based; conditions: pH 9.0, TSB with emulsified oil, 24 hour
Experimental: A culture of mixed enteric bacteria (klebsiella pneumoniae, Proteus vulgarus, Citrobacter sp., Escherichia coli) at pH=9.0 in TSB (trypticase soy broth) media mixed with emulsified oil was prepared. A biocide, GROTAN® {78.5% 1,3,5-(2-hydroxyethyl)-s-triazine solution in water} as sold by Troy Chemicals (Florham Park, N.J.) was added at varying concentrations to the culture in combination with 2500 ppm of one of the four alkanolamines, N-butylaminoethanol (BAE), diethanolamine (DEA), diglycolamine (DGA) or 2-amino-2-methyl-1-propanol (AMP). Optical density measurements were taken every 15 minutes over a 24 hour time period (total of 96 data points). The maximum growth slope was calculated by taking the 10 contiguous data points that result in the highest growth slope (units of OD per time) over the 24 hour period. Those 10 data points were subjected to a least squares linear fit to calculate the maximum growth slope.

[2] = tested on: Pseudomonas Aeruginosa (ATCC27853); experiment: Microtiter plate growth of Pseudomonas Aeruginosa with amines and GROTAN; assay type: cell-based; conditions: for growth of Pseudomonas Aeruginosa (Table 1 entry): pH 8.5, 24 hours
[3] = 2500 ppm amine plus GROTAN 650 ppm
[4] = 2500 ppm amine plus GROTAN 1650 ppm

Compound | maximum growth slope [1, 3] [OD per time] | maximum growth slope [1, 4] [OD per time] | maximum growth slope ([1]; 2500 ppm amine, GROTAN 0 ppm) [OD per time] | growth of Pseudomonas Aeruginosa (Table 1 entry) ([2]; amine 2000 ppm plus GROTAN 100 ppm) | growth of Pseudomonas Aeruginosa (Table 1 entry) ([2]; amine 2000 ppm plus GROTAN 250 ppm) | growth of Pseudomonas Aeruginosa (Table 1 entry) ([2]; amine 2000 ppm plus GROTAN 500 ppm) | growth of Pseudomonas Aeruginosa (Table 1 entry) ([2]; amine 2000 ppm plus GROTAN 1000 ppm) | growth of Pseudomonas Aeruginosa (Table 1 entry) ([2]; amine 2000 ppm plus GROTAN 2000 ppm) | growth of Pseudomonas Aeruginosa (Table 1 entry) ([2]; amine 2000 ppm, GROTAN 0 ppm) | growth of Pseudomonas Aeruginosa (Table 1 entry) ([2]; amine 4000 ppm plus GROTAN 100 ppm) | growth of Pseudomonas Aeruginosa (Table 1 entry) ([2]; amine 4000 ppm plus GROTAN 250 ppm) | growth of Pseudomonas Aeruginosa (Table 1 entry) ([2]; amine 4000 ppm plus GROTAN 500 ppm) | growth of Pseudomonas Aeruginosa (Table 1 entry) ([2]; amine 4000 ppm plus GROTAN 1000 ppm) | growth of Pseudomonas Aeruginosa (Table 1 entry) ([2]; amine 4000 ppm plus GROTAN 2000 ppm) | growth of Pseudomonas Aeruginosa (Table 1 entry) ([2]; amine 4000 ppm, GROTAN 0 ppm) | enhancement in the biocidal effect of GROTAN ([2]; conclusion from Table 1)
OCCNCCO [DEA, diethanolamine] | 0.466 | 0.117 | 0.723 | – | – | – | – | – | – | – | – | – | – | – | – | –
NCCOCCO [DGA, diglycolamine, reference compound] | 0.1955 | 0.0725 | 0.796 | 0.71 | 0.70 | 0.76 | 0.32 | 0.34 | 0.76 | 0.70 | 0.69 | 0.36 | 0.29 | 0.36 | 0.68 | not seen
